# Assay results: patent publication US20220251124A1, “3,5-BIS(PHENYL)-1H-HETEROARYL DERIVATIVES AS MEDICAMENTS” (INSTITUTE OF BIOTECHNOLOGY CAS, V.V.I., priority 2019, published 2022)
# Tests used:
# Assay type in all cases: cell-based
# [1] = tested on: MCF7 mammospheres (cancer stem-like cells); experiment: formation and growth of mammospheres, Cell Titer Glo 3D; conditions: 1 μM, 140 hrs
# Procedure: To test the effect of compound 1 on the viability and proliferation of other resistant cancer cell types, we utilized a model of cancer stem-like cells that can be cultivated in vitro, so-called “mammospheres”. […] In this assay MCF7 spheres were dissociated to single cells/small spheres, seeded 10,000 cells per well on a special cell culture plastic that is non adherent in the Mammocult medium (Stem cell technologies) and compound 1 and compound 2 at 1 μM were added. This represents the non-cytotoxic concentration. Cells were left to grow and generate spheres for 140 hrs. The amount of cells was then measured by the Cell TiterGlo 3D reagent (Promega) that determines cell counts of 3D cultured cells as a function of their ATP content that is determined by a chemiluminescent assay.
# [2] = tested on: MDA-MB-231 cells stably transfected with KEIMA; experiment: mitophagy induction, KEIMA reporter; conditions: 24 hours
# Procedure: (§1) The effect of compounds 1 and 2 on mitophagy induction was assessed in MCF7 and MDA-MB-231 cells using the reporter protein KEIMA. The excitation spectra of KEIMA changes according to the mitochondrial pH, having an excitation peak at 440 nm atr pH>6 and at 586 at pH<5, with a second excitation peak remaining constant at 620 nm. Therefore, a decrease in the 440 nm/586 nm fluorescence ratio indicates mitochondrial acidification. MCF7 and MDA-MB-231 cells stably transfected with KEIMA were incubated with compound 1 for 24 hours and their fluorescence at both excitation wavelengths was measured by flow cytometry.
# [3] = tested on: MCF7 cells stably transfected with KEIMA; experiment: mitophagy induction, KEIMA reporter; conditions: 24 hours
# Procedure: as §1
# BxPC3 = experiment: crystal violet assay, cellular viability, 48 hrs; conditions: Homo sapiens, BXPC-3
# Procedure: Compound 1 and a comparative compound deferasirox (DFX) were tested in their efficacy to kill/suppress proliferation of malignant breast cancer MCF7 cells representing estrogen-dependent type of breast cancer. Briefly, 10.000 cells per well were seeded in a 96-well plate on one day and the next day the tested compounds were added and incubated with the cells for 48 hrs. The cells were then fixed with 4% paraformaldehyde, stained with 0.05% crystal violet, washed with PBS, and solubilized in 1% SDS. The absorbance of the plate at 595 nm was then measured, quantifying the number of viable cells.
# Compounds 1, 2 and the comparative compound deferasirox were tested in their efficacy to suppress proliferation/kill several malignant cell lines of breast, pancreatic and ovarian origin (MCF7, MDA-MB-231, BxPC3 and OVCAR3). The procedure is identical to that in example 12.
# MDA-MB-231 [4] = experiment: mitochondrial ROS, mitoSOX probe, flow cytometry
# Procedure: (§2) The effect of compound 1 on generation of mitochondrial reactive oxygen species (ROS) was evaluated in MCF7 and MDA-MB-231 cells using a specific mitochondrially targeted probe mitoSOX (ThermoFisher Scientific) that measures mostly mitochondrial superoxide and upon binding becomes fluorescent. Cells treated with compound 1 for the described time interval were stained with the probe and then analyzed via Flow cytometry.
# MCF7 [5] = experiment: mitochondrial ROS, mitoSOX probe, flow cytometry
# Procedure: as §2
# MDA-MB-231 [6] = experiment: cellular ROS, DCF-DA probe, flow cytometry; conditions: 5 μM
# Procedure: (§3) The effect of compound 1 on generation of cellular reactive oxygen species (ROS) was evaluated in MCF7 and MDA-MB-231 cells using a cell permeable ROS probe 2′,7′-dichlorodihydrofluorescein diacetate (DCF-DA; Sigma-Aldrich) that measures several reactive species and becomes fluorescent upon oxidation. Cells treated with compound 1 or compound 2 (5 μM) for the described time interval were stained with the probe and then analyzed via Flow cytometry.
# MCF7 [7] = experiment: cellular ROS, DCF-DA probe, flow cytometry; conditions: 5 μM
# Procedure: as §3
# [8] = tested on: UPF16A leukemia cell line; experiment: AnnexinV/PI assay, cell death induction, 48 hrs
# Procedure: (§4) This effect seems to be based mainly on the cytostatic effect of compound 1. To define the ability to kill cells, cell death-inducing potency (cytotoxic efficacy) of DFX and compound 1 have been tested via annexin V/PI staining commonly used as a measure of apoptotic/necrotic cell death. Briefly, cells were seeded in 12-well plate at 100,000 per well, incubated with the selected compounds for 48 hours, then floating cells were spun, adherent cells trypsinized and spun as well followed by the staining with AnnexinV-FITC and PI probes. Cells were then washed with PBS and measured via Fluorescence Activated Sorter.
# (§5) This effect seems to be based mainly on the cytostatic effect of compound 1. To define the ability to kill cells, cell death-inducing potency (cytotoxic efficacy) of DFX and compound 1 have been tested via annexin V/PI staining commonly used as a measure of apoptotic/necrotic cell death (see example 15). […] Compound 1 killed cancer cells with effects higher by almost 3 orders of magnitude than those of deferasirox. Such results are unprecedented and very unexpected.
# UPF4D leukemia cell line = experiment: AnnexinV/PI assay, cell death induction, 48 hrs
# Procedure: as §4, §5
# UPF9T leukemia cell line = experiment: AnnexinV/PI assay, cell death induction, 48 hrs
# Procedure: as §4, §5
# UPF1H leukemia cell line = experiment: AnnexinV/PI assay, cell death induction, 48 hrs
# Procedure: as §4, §5
# [9] = 5 min, MDA-MB-231 (0 min = 100)
structure (smiles),measurement,setting,value
"O=C(NCCCCCCCCCC[P+](c1ccccc1)(c1ccccc1)c1ccccc1)c1ccc(-n2nc(-c3ccccc3O)nc2-c2ccccc2O)cc1 [Compound 1, (10-(4-(3,5-bis(2-hydroxyphenyl)-1H-1,2,4-triazol-1-yl)benzamido)decyl) triphenylphosphonium Chloride]",chemiluminescence ATP values normalized to control sample set as 100,[1],6.61 (1.91)
same,KEIMA 440 nm/586 nm fluorescence ratio,[2]; 1.5 μM,0.81 (0.02)
same,KEIMA 440 nm/586 nm fluorescence ratio,[2]; 2.5 μM,0.81 (0.03)
same,KEIMA 440 nm/586 nm fluorescence ratio,[2]; 5 μM,0.76 (0.10)
same,KEIMA 440 nm/586 nm fluorescence ratio,[2]; 10 μM,0.50 (0.04)
same,KEIMA 440 nm/586 nm fluorescence ratio,[3]; 1.5 μM,1.01 (0.14)
same,KEIMA 440 nm/586 nm fluorescence ratio,[3]; 2.5 μM,0.99 (0.13)
same,KEIMA 440 nm/586 nm fluorescence ratio,[3]; 5 μM,0.86 (0.15)
same,KEIMA 440 nm/586 nm fluorescence ratio,[3]; 10 μM,0.71 (0.25)
same,IC50,BxPC3,0.15 µM
same,MitoSOX mean fluorescence,MDA-MB-231 [4]; [9],134.7 (36.9)
same,MitoSOX mean fluorescence,"MDA-MB-231 [4]; 10 min, MDA-MB-231",196.7 (41.5)
same,MitoSOX mean fluorescence,"MDA-MB-231 [4]; 15 min, MDA-MB-231",284.7 (103.2)
same,MitoSOX mean fluorescence,"MDA-MB-231 [4]; 30 min, MDA-MB-231",379.1 (76.9)
same,MitoSOX mean fluorescence,"MDA-MB-231 [4]; 60 min, MDA-MB-231",439.1 (83.0)
same,MitoSOX mean fluorescence,"MDA-MB-231 [4]; 120 min, MDA-MB-231",588.2 (14.11)
same,MitoSOX mean fluorescence,"MDA-MB-231 [4]; 180 min, MDA-MB-231",560.8 (27.5)
same,MitoSOX mean fluorescence,"MDA-MB-231 [4]; 240 min, MDA-MB-231",612.5 (37.5)
same,MitoSOX mean fluorescence,"MCF7 [5]; 5 min, MCF7 (0 min = 100)",176.5 (15.0)
same,MitoSOX mean fluorescence,"MCF7 [5]; 10 min, MCF7",177.6 (26.1)
same,MitoSOX mean fluorescence,"MCF7 [5]; 15 min, MCF7",191.6 (47.0)
same,MitoSOX mean fluorescence,"MCF7 [5]; 30 min, MCF7",230.8 (85.2)
same,MitoSOX mean fluorescence,"MCF7 [5]; 60 min, MCF7",235.9 (99.3)
same,MitoSOX mean fluorescence,"MCF7 [5]; 120 min, MCF7",171.1 (17.6)
same,MitoSOX mean fluorescence,"MCF7 [5]; 180 min, MCF7",165.4 (8.9)
same,MitoSOX mean fluorescence,"MCF7 [5]; 240 min, MCF7",207.7 (18.5)
same,DCF-DA mean fluorescence,MDA-MB-231 [6]; [9],129.9 (17.4)
same,DCF-DA mean fluorescence,"MDA-MB-231 [6]; 10 min, MDA-MB-231",207.8 (94.2)
same,DCF-DA mean fluorescence,"MDA-MB-231 [6]; 15 min, MDA-MB-231",258.3 (71.2)
same,DCF-DA mean fluorescence,"MDA-MB-231 [6]; 30 min, MDA-MB-231",437.5 (105.9)
same,DCF-DA mean fluorescence,"MDA-MB-231 [6]; 60 min, MDA-MB-231",529.5 (176.1)
same,DCF-DA mean fluorescence,"MCF7 [7]; 5 min, MCF7 (0 min = 100)",161.3 (29.8)
same,DCF-DA mean fluorescence,"MCF7 [7]; 10 min, MCF7",172.0 (18.9)
same,DCF-DA mean fluorescence,"MCF7 [7]; 15 min, MCF7",283.8 (36.6)
same,DCF-DA mean fluorescence,"MCF7 [7]; 30 min, MCF7",857.2 (299.0)
same,DCF-DA mean fluorescence,"MCF7 [7]; 60 min, MCF7",1435.0 (452.9)
same,dead cells (AnnexinV/PI),[8]; 0.1 μM,45.4 (16.2) %
same,dead cells (AnnexinV/PI),[8]; 1 μM,71.8 (20.2) %
same,dead cells (AnnexinV/PI),UPF4D leukemia cell line; 0.1 μM,87.3 (13.4) %
same,dead cells (AnnexinV/PI),UPF4D leukemia cell line; 1 μM,96.7 (3.9) %
same,dead cells (AnnexinV/PI),UPF9T leukemia cell line; 0.1 μM,88.2 (4.8) %
same,dead cells (AnnexinV/PI),UPF9T leukemia cell line; 1 μM,99.0 (0.6) %
same,dead cells (AnnexinV/PI),UPF1H leukemia cell line; 0.1 μM,85.3 (10.9) %
same,dead cells (AnnexinV/PI),UPF1H leukemia cell line; 1 μM,98.3 (0.6) %
"O=C(O)c1ccc(-n2nc(-c3ccccc3O)nc2-c2ccccc2O)cc1 [DFX, deferasirox, reference compound]",IC50,BxPC3,22.9 µM
same,dead cells (AnnexinV/PI),[8]; 1 μM,13.7 (5.0) %
same,dead cells (AnnexinV/PI),[8]; 10 μM,48.4 (16.2) %
same,dead cells (AnnexinV/PI),UPF4D leukemia cell line; 1 μM,16.9 (16.9) %
same,dead cells (AnnexinV/PI),UPF4D leukemia cell line; 10 μM,77.3 (3.5) %
same,dead cells (AnnexinV/PI),UPF9T leukemia cell line; 1 μM,13.7 (3.3) %
same,dead cells (AnnexinV/PI),UPF9T leukemia cell line; 10 μM,46.6 (5.2) %
same,dead cells (AnnexinV/PI),UPF1H leukemia cell line; 1 μM,9.9 (1.3) %
same,dead cells (AnnexinV/PI),UPF1H leukemia cell line; 10 μM,95.8 (0.2) %
